Holding throughout (assay): NCI anticancer screen, dose series, 48 h
The subject of experiment [1] is ACHN renal.
In experiment [2] the test system is CCRF-CEM leukemia.
For experiment [3], the system named is DU-145 prostate.
The test system of experiment [4] is EKVX NSCLC.
Experiment [5] has as its system HCT-116 colon.
Experiment [6] deals with K-562 leukemia.
Experiment [7] has as its system KM12 colon.
In experiment [8] the test system is SK-MEL-28 melanoma.
For experiment [9], the system named is M14 melanoma.
Experiment [10] has as its system SK-MEL-2 melanoma.

“And” between values parts separate entries of the source, which are not always exact repeats. Equal entries are not always repeated.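 Tested at 5 concentrations; 48 h exposure; 96-well plates; endpoints linearly interpolated, else capped at highest concentration. Here, GI50 denotes the concentration required for 50% inhibition of growth. The concentration for full growth arrest is given as TGI.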 Bounds are passed on as bounds.

For the molecule `CCCN(CCC)c1ccc(C=O)c(OC)c1`, the GI50 in experiment [1] is 21.4 µM; in experiment [2], 24.4 µM; in [3], 26.6 µM; in [4], 16.1 µM; in [5], 25.5 µM; in experiment [6], 19.2 µM. The GI50 in experiment [7] is 23.7 µM; in experiment [8], 21.3 µM. The TGI in [1] is over 100 µM; in [2] it was over 100 µM; in experiment [3], over 100 µM; in experiment [4] it was 76.1 µM; in [5] it was over 100 µM; in [6], over 100 µM. In addition, the TGI in [7] came out at 83.8 µM; in [8] it was 83.9 µM.

Consider `CCOc1ccc2c(-c3ccnc(Nc4cccc(C(F)(F)F)c4)n3)cnn2n1`, for which the GI50 is 16.3 µM in experiment [1]; over 25 µM in experiment [2]; over 19.5 µM in [3]; over 17.9 µM in [4]; 6.04 µM in experiment [5]; 15.9 µM in [6]. The figures for the GI50 in experiment [7], in [9] and in experiment [8] were 5.07 µM, over 25 µM and over 25 µM, respectively. Also, the TGI was over 25 µM in experiment [1]; over 25 µM in experiment [2]; over 25 µM in [3]; over 25 µM in experiment [4]; 15.2 µM in [5]; over 25 µM in [6]. Moreover, the TGI was 14 µM in [7], over 25 µM in [9] and over 25 µM in experiment [8].

For the molecule `CCN(CCc1ccc(F)cc1)c1ccc(CO)c(Cl)c1`, the GI50 in experiment [1] was 9.59 µM; in experiment [2], 15.6 µM; in [3], 14.4 µM; in experiment [5], 1.85 µM; in experiment [6], 4.21 µM; in [7] it was 15 µM. The GI50 in experiment [9] is 13.8 µM; in experiment [10] it was 7.29 µM; in [8], 16.3 µM. Further, the TGI in experiment [1] was determined as 22.5 µM; in experiment [2] it was 47.3 µM; in [3], 29.2 µM; in experiment [5], 13.5 µM; in experiment [6] it was 25.7 µM; in experiment [7], 30 µM. Further, the TGI came out at 28.7 µM in [9], 21.1 µM in [10] and 31.2 µM in experiment [8].

Consider `CC(=O)OC1C(O)COC(Oc2c(C)c3c4c(c2O)[C@@H](C)CC[C@@H]4[C@@H](C)C[C@H]3C=C(C)C)C1O` (stereo partly drawn), for which the GI50 in [1] was 18.7 µM; in experiment [2], 7.42 µM; in experiment [3] it was 12.8 µM; in experiment [5], 21.1 µM; in experiment [6] it was 10.3 µM; in [7], 14.8 µM. Moreover, the results for the GI50 in experiment [9], in experiment [10] and in experiment [8] were 14.6 µM, 42.7 µM and 22.3 µM, respectively. The TGI in experiment [1] is 42.5 µM; in [2] it was 27.4 µM; in experiment [3], 29 µM; in experiment [5], over 100 µM; in [6], 30.2 µM; in [7] it was 30.8 µM. In addition, the results for the TGI in experiment [9], in [10] and in [8] were 31.5 µM, over 100 µM and 48.2 µM, respectively.

Take `Cn1c(-c2c(N)n(Cc3ccc(Cl)cc3)c3nc(C#N)c(C#N)nc23)nc2ccccc21`: the GI50 in [1] is 1.5 µM; in [3] it was 5.94 µM; in [4], 7.04 µM; in experiment [5] it was 8.52 µM; in experiment [6], 17.3 µM; in experiment [7], 2.76 µM. Besides, the values for the GI50 in experiment [9], in [10] and in experiment [8] were 10.6 µM, over 50 µM and 2.86 µM, respectively. For the same molecule, the TGI in experiment [1] is 6.38 µM; in experiment [3] it was 17.4 µM; in experiment [4], 46.1 µM; in experiment [5] it was over 50 µM; in [6] it was over 50 µM; in experiment [7], 32.2 µM. Also, the TGI is 42.6 µM in [9], over 50 µM in [10] and 13.9 µM in [8].

For the molecule `COc1cc(/C=C\c2cc(/C=C\c3ccc(O)c(OC)c3)n(C(=O)Nc3ccc(C(F)(F)F)cc3)n2)ccc1O`, the GI50 is 2.48 µM in experiment [1]; 3.67 µM in experiment [3]; 3.22 µM in [4]; 1.51 µM in experiment [5]; 2.53 µM in experiment [6]; 2.33 µM in experiment [7]. The GI50 in experiment [9] was 1.94 µM; in [10], 3.15 µM; in [8] it was 2.19 µM. In addition, the TGI is 7.08 µM in [1]; 13 µM in experiment [3]; 38.4 µM in [4]; 2.94 µM in experiment [5]; over 100 µM in experiment [6]; 5.59 µM in experiment [7]. In addition, the TGI was 4.08 µM in experiment [9], 17.3 µM in experiment [10] and 5.9 µM in experiment [8].

As for `COc1ncnc2c1ncn2C/C(Br)=C(\Br)CCl`, the GI50 in experiment [1] is 2.14 µM; in [2] it was 2.73 µM; in [3], 5.31 µM; in [4] it was 16.3 µM; in [5] it was 1.73 µM; in experiment [6], 3.29 µM. Besides, the GI50 in experiment [7] was 3.54 µM; in experiment [9] it was 1.82 µM; in experiment [8] it was 2.62 µM. Further, the TGI in experiment [1] came to 4.92 µM; in [2], 13.5 µM; in experiment [3], 18.2 µM; in experiment [4] it was 29.9 µM; in [5], 3.49 µM; in experiment [6], 10.9 µM. Also, the results for the TGI in experiment [7], in experiment [9] and in experiment [8] were 13.4 µM, 4.14 µM and 8.62 µM, respectively.

For `S=C(S)NCCCn1ccnc1`, the TGI in [1], in experiment [3], in [4], in [5], in experiment [6] and in experiment [7] was over 100 µM each time. The TGI in experiment [9], in [10] and in experiment [8] was over 100 µM throughout.

With `CN(C)c1ccc2c(SCC(=O)OCC(=O)[C@@]3(O)CC[C@H]4[C@@H]5CCC6=CC(=O)C=C[C@]6(C)[C@H]5C(=O)C[C@@]43C)c3ccc(N(C)C)cc3nc2c1`, the TGI was 20 µM in [1]; 58.2 µM in experiment [3]; over 81.2 µM in experiment [4]; over 100 µM in [5]; over 70.4 µM in experiment [6]; over 100 µM in experiment [7]. The TGI in experiment [9] is over 100 µM; in experiment [10] it was over 100 µM; in experiment [8], over 76.1 µM.

As for `O=C1c2ccccc2C(=O)c2c1c(NCCNCCO)c1cc[nH]c1c2NCCNCCO`, the GI50 is 9.96 µM in experiment [1]; 1.04 µM in [2]; 3.31 µM in [3]; 4.65 µM in experiment [4]; 1.27 µM in [5]; 1.63 µM in experiment [6]. Also, the GI50 is 4.34 µM in experiment [7], 7.27 µM in experiment [9] and 3.27 µM in experiment [8]. Besides, the TGI in experiment [1] was over 100 µM; in [3], over 59 µM; in [4], 25.5 µM; in experiment [5], over 21.5 µM; in experiment [7], over 39.9 µM; in experiment [9], over 55.1 µM. This molecule yielded a TGI in [8] of 20.5 µM.

With `COc1cc2c(C#N)n3c(c2cc1OC)C(=O)C(c1ccccc1)Oc1ccccc1-3` (stereo not drawn), the GI50 is 2.72 µM in [2]; 91 µM in experiment [3]; 3.23 µM in experiment [5]; 3.08 µM in [6]; 3.36 µM in experiment [7]; over 100 µM in experiment [8]. The TGI was 8.51 µM in [2]; over 100 µM in experiment [3]; over 100 µM in [5]; over 100 µM in experiment [6]; over 100 µM in experiment [7]; over 100 µM in experiment [8].

For the molecule `CN1CCN(c2ccc(NC3=C(Cl)C(=O)c4ncccc4C3=O)cc2C(F)(F)F)CC1`, the GI50 was 1.48 µM in experiment [1]; 1.91 µM in experiment [3]; 2.66 µM in experiment [4]; 1.69 µM in [5]; 0.435 µM in experiment [6]; 14.4 µM in experiment [7]. Also, the results for the GI50 in experiment [9], in [10] and in experiment [8] were 1.78 µM, 3.32 µM and 1.99 µM, respectively. Also, the TGI in experiment [1] is 2.8 µM; in experiment [3], 3.71 µM; in experiment [4], 8.44 µM; in [5] it was 3.27 µM; in [6], over 100 µM; in experiment [7], 30.1 µM. Further, the figures for the TGI in [9], in experiment [10] and in experiment [8] were 3.67 µM, 8.79 µM and 3.45 µM, respectively.

Take `CCN(CC)CCNc1ccc(CO)c2sc3ccccc3c(=O)c12`: the GI50 was 2.35 µM and 6.73 µM and 2.58 µM in experiment [1]; 2.99 µM in experiment [3]; 3.92 µM and 16.2 µM in experiment [4]; 4.28 µM in [5]; 1.99 µM and 12.4 µM and 2.03 µM in experiment [9]; 2.29 µM in experiment [8]. Further, the TGI is 7.94 µM and 24.5 µM and 15.9 µM in [1]; 9.87 µM and 27.6 µM in experiment [3]; 28.7 µM [middle of 4 runs] in experiment [4]; 26 µM [middle of 4 runs] in experiment [7]; 4.2 µM and 25.1 µM and 4.3 µM in experiment [9].

For `Cc1cc(Cl)ccc1OCC(=O)Oc1c(Cl)c(Cl)c(Cl)c(Cl)c1Cl`, the TGI in [1] is over 100 µM; in experiment [3], 49.2 µM; in [4], 56.4 µM; in experiment [5], 45.8 µM; in [6], over 100 µM; in experiment [7] it was 52.4 µM. In addition, the results for the TGI in [9], in [10] and in [8] were 71.4 µM, 67.7 µM and over 100 µM, respectively.
